Measured values taken from PubChem BioAssay AID256 (DTP/NCI, 2004).
Several values for one entry are separate records, joined by “and”; a condition that tells them apart may be missing. Equal entries are not always repeated. Toxic doses and inconclusive results are not listed.

Test system: CD2F1 mice, L1210 leukemia ip, survival T/C
Test: NCI In Vivo Anticancer Drug Screen. Data for tumor model L1210 Leukemia (intraperitoneal) in CD2F1 (CDF1) mice
Details: endpoint: mean survival time, higher = longer survival
Summary of the method: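 Antitumor effect is scored in animals hosting a serially transplanted tumor. Values compare compound-dosed animals against vehicle-only controls as a simple quotient.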

[1] = dose: 100.0 mg/kg/injection, schedule: Q04DX003 (ip), vehicle: saline with Tween-80
[2] = dose: 200.0 mg/kg/injection, schedule: Q04DX003 (ip), vehicle: saline with Tween-80
[3] = dose: 400.0 mg/kg/injection, schedule: Q04DX003 (ip), vehicle: saline with Tween-80
[4] = dose: 100.0 mg/kg/injection, schedule: Q01DX009 (ip), vehicle: saline with Tween-80
[5] = dose: 200.0 mg/kg/injection, schedule: Q01DX009 (ip), vehicle: saline with Tween-80
[6] = dose: 400.0 mg/kg/injection, schedule: Q01DX009 (ip), vehicle: saline with Tween-80
[7] = dose: 100.0 mg/kg/injection, schedule: Q04DX002 (ip), vehicle: saline with Tween-80

## COc1cc([C@@H]2c3cc4c(cc3[C@@H](OC3OC5CO[C@@H](c6cccs6)OC5C(O)C3O)[C@H]3COC(=O)[C@H]23)OCO4)cc(OC)c1O (stereo partly drawn)
dose: 0.25 mg/kg/injection, schedule: Q01DX009 (ip), vehicle: saline
  T/C: 115 % of control
dose: 0.25 mg/kg/injection, schedule: Q03HX016 (ip), vehicle: saline
  T/C: 152 % of control
dose: 0.25 mg/kg/injection, schedule: Q03HX024 (ip), vehicle: saline
  T/C: 169 % of control and 173 % of control
dose: 0.5 mg/kg/injection, schedule: Q01DX009 (sc), vehicle: saline
  T/C: 110 % of control
dose: 0.5 mg/kg/injection, schedule: Q03HX008 (ip), vehicle: saline
  T/C: 164 % of control
dose: 0.5 mg/kg/injection, schedule: Q03HX016 (ip), vehicle: saline
  T/C: 246 % of control
dose: 0.5 mg/kg/injection, schedule: Q03HX024 (ip), vehicle: saline
  T/C: 256 % of control and 323 % of control
dose: 1.0 mg/kg/injection, schedule: Q01DX005 (ip), vehicle: saline
  T/C: 153 % of control
dose: 1.0 mg/kg/injection, schedule: Q01DX009 (ip), vehicle: saline
  T/C: 123 % of control and 231 % of control and 106 % of control
dose: 1.0 mg/kg/injection, schedule: Q03HX008 (ip), vehicle: saline
  T/C: 192 % of control
dose: 1.0 mg/kg/injection, schedule: Q03HX016 (ip), vehicle: saline
  T/C: 544 % of control
dose: 1.0 mg/kg/injection, schedule: Q03HX024 (ip), vehicle: saline
  T/C: 441 % of control and 514 % of control
dose: 2.0 mg/kg/injection, schedule: Q01DX001 (sc), vehicle: saline
  T/C: 113 % of control
dose: 2.0 mg/kg/injection, schedule: Q01DX005 (ip), vehicle: saline
  T/C: 204 % of control
dose: 2.0 mg/kg/injection, schedule: Q01DX009 (ip), vehicle: saline
  T/C: 202 % of control and 109 % of control
dose: 2.0 mg/kg/injection, schedule: Q01DX009 (oral), vehicle: saline
  T/C: 114 % of control
dose: 2.0 mg/kg/injection, schedule: Q01DX009 (sc), vehicle: saline
  T/C: 166 % of control
dose: 2.0 mg/kg/injection, schedule: Q03HX008 (ip), vehicle: saline
  T/C: 173 % of control
dose: 2.0 mg/kg/injection, schedule: Q03HX016 (ip), vehicle: saline
  T/C: 313 % of control
dose: 2.0 mg/kg/injection, schedule: Q03HX024 (ip), vehicle: saline
  T/C: 89 % of control
dose: 4.0 mg/kg/injection, schedule: Q01DX001 (ip), vehicle: saline
  T/C: 158 % of control
dose: 4.0 mg/kg/injection, schedule: Q01DX001 (sc), vehicle: saline
  T/C: 123 % of control
dose: 4.0 mg/kg/injection, schedule: Q01DX005 (ip), vehicle: saline
  T/C: 87 % of control
dose: 4.0 mg/kg/injection, schedule: Q01DX009 (ip), vehicle: saline
  T/C: 210 % of control and 112 % of control
dose: 4.0 mg/kg/injection, schedule: Q01DX009 (sc), vehicle: saline
  T/C: 102 % of control
dose: 4.0 mg/kg/injection, schedule: Q04DX003 (ip), vehicle: saline
  T/C: 209 % of control
dose: 4.0 mg/kg/injection, schedule: Q08DX002 (ip), vehicle: saline
  T/C: 164 % of control
dose: 8.0 mg/kg/injection, schedule: Q01DX001 (ip), vehicle: saline
  T/C: 239 % of control
dose: 8.0 mg/kg/injection, schedule: Q01DX001 (oral), vehicle: saline
  T/C: 122 % of control
dose: 8.0 mg/kg/injection, schedule: Q01DX009 (oral), vehicle: saline
  T/C: 102 % of control
dose: 8.0 mg/kg/injection, schedule: Q04DX003 (ip), vehicle: saline
  T/C: 169 % of control and 251 % of control
dose: 8.0 mg/kg/injection, schedule: Q08DX002 (ip), vehicle: saline
  T/C: 346 % of control
dose: 16.0 mg/kg/injection, schedule: Q01DX001 (ip), vehicle: saline
  T/C: 254 % of control
dose: 16.0 mg/kg/injection, schedule: Q01DX001 (sc), vehicle: saline
  T/C: 153 % of control
dose: 32.0 mg/kg/injection, schedule: Q01DX001 (ip), vehicle: saline
  T/C: 87 % of control
dose: 32.0 mg/kg/injection, schedule: Q01DX001 (sc), vehicle: saline
  T/C: 156 % of control
dose: 32.0 mg/kg/injection, schedule: Q04DX003 (ip), vehicle: saline
  T/C: 454 % of control
dose: 32.0 mg/kg/injection, schedule: Q08DX002 (ip), vehicle: saline
  T/C: 114 % of control

## COC1(OC)CCC(OC)(OC)C(OC)(OC)C1(OC)OC
[1]
  T/C: 96 % of control
[2]
  T/C: 94 % of control
[3]
  T/C: 102 % of control

## O=C(c1ccccc1)C1OC1c1ccccc1 (stereo not drawn)
[4]
  T/C: 93 % of control
[1]
  T/C: 101 % of control
[5]
  T/C: 94 % of control
[2]
  T/C: 98 % of control
[6]
  T/C: 94 % of control
[3]
  T/C: 101 % of control

## CCOC(=O)C1C2CCC(O2)C1C#N (stereo not drawn)
dose: 25.0 mg/kg/injection, schedule: Q04DX002 (ip), vehicle: saline with Tween-80
  T/C: 98 % of control
dose: 50.0 mg/kg/injection, schedule: Q04DX002 (ip), vehicle: saline with Tween-80
  T/C: 98 % of control
[7]
  T/C: 98 % of control

## O=CC(Cc1ccccc1)CC(O)c1ccccc1 (stereo not drawn)
dose: 100.0 mg/kg/injection, schedule: Q01DX001 (ip), vehicle: saline with Tween-80
  T/C: 95 % of control
[4]
  T/C: 107 % of control
dose: 200.0 mg/kg/injection, schedule: Q01DX001 (ip), vehicle: saline with Tween-80
  T/C: 88 % of control
[5]
  T/C: 96 % of control
dose: 400.0 mg/kg/injection, schedule: Q01DX001 (ip), vehicle: saline with Tween-80
  T/C: 91 % of control
[6]
  T/C: 96 % of control

## COc1ccccc1C1=CCCCCC1
[4]
  T/C: 107 % of control
[5]
  T/C: 107 % of control

## CC(=O)N1C(=O)C2(Nc3cccnc3N2)c2ccccc21 (stereo not drawn)
dose: 100.0 mg/kg/injection, schedule: Q04DX003 (ip), vehicle: saline sonified
  T/C: 97 % of control
dose: 200.0 mg/kg/injection, schedule: Q04DX003 (ip), vehicle: saline sonified
  T/C: 88 % of control
dose: 400.0 mg/kg/injection, schedule: Q04DX003 (ip), vehicle: saline sonified
  T/C: 103 % of control

## [O-][n+]1cc(N=Nc2ccc(Cl)cc2)nn1-c1ccc(Cl)cc1
dose: 400.0 mg/kg/injection, schedule: Q01DX001 (ip), vehicle: saline
  T/C: 86 % of control

## COc1ccc(CCNC(=O)NC(C)(C)C)cc1OC
[4]
  T/C: 96 % of control
[5]
  T/C: 100 % of control
[6]
  T/C: 93 % of control

## CC(C)(C)OC(=O)NC(CCCCNC(=O)C(F)(F)F)C(=O)ON1C(=O)CCC1=O (stereo not drawn)
dose: 25.0 mg/kg/injection, schedule: Q04DX003 (ip), vehicle: saline with Tween-80
  T/C: 102 % of control
dose: 50.0 mg/kg/injection, schedule: Q04DX003 (ip), vehicle: saline with Tween-80
  T/C: 102 % of control
[1]
  T/C: 89 % of control and 101 % of control

## FC1(F)C2Cc3ccccc3C2C1(Cl)Cl (stereo not drawn)
dose: 75.0 mg/kg/injection, schedule: Q01DX001 (ip), vehicle: saline
  T/C: 103 % of control
dose: 150.0 mg/kg/injection, schedule: Q01DX001 (ip), vehicle: saline
  T/C: 101 % of control
dose: 300.0 mg/kg/injection, schedule: Q01DX001 (ip), vehicle: saline
  T/C: 100 % of control

## CCNC1=C(C)C(=O)C2=C(C1=O)C(COC(N)=O)C1(OC)C3NC3CN21 (stereo not drawn)
dose: 1.5 mg/kg/injection, schedule: Q01DX001 (ip), vehicle: water
  T/C: 98 % of control
dose: 3.0 mg/kg/injection, schedule: Q01DX001 (ip), vehicle: water
  T/C: 110 % of control
dose: 6.0 mg/kg/injection, schedule: Q01DX001 (ip), vehicle: water
  T/C: 110 % of control
dose: 12.0 mg/kg/injection, schedule: Q01DX001 (ip), vehicle: water
  T/C: 114 % of control

## CCC1CN2CCc3cc(OC)c(OC)cc3C2CC1CC1c2cc(OC)c(OC)cc2CCN1C(=O)C(Cc1c[nH]c2ccccc12)NC(=O)OC(C)(C)C (stereo not drawn)
dose: 8.0 mg/kg/injection, schedule: Q04DX003 (ip), vehicle: saline with Tween-80
  T/C: 93 % of control
dose: 16.0 mg/kg/injection, schedule: Q04DX003 (ip), vehicle: saline with Tween-80
  T/C: 95 % of control
dose: 32.0 mg/kg/injection, schedule: Q04DX003 (ip), vehicle: saline with Tween-80
  T/C: 98 % of control
dose: 64.0 mg/kg/injection, schedule: Q04DX003 (ip), vehicle: saline with Tween-80
  T/C: 89 % of control
dose: 128.0 mg/kg/injection, schedule: Q04DX003 (ip), vehicle: saline with Tween-80
  T/C: 87 % of control

## CCCCCOC(=O)COc1ccc(F)cc1
[7]
  T/C: 97 % of control
dose: 200.0 mg/kg/injection, schedule: Q04DX002 (ip), vehicle: saline with Tween-80
  T/C: 105 % of control
dose: 400.0 mg/kg/injection, schedule: Q04DX002 (ip), vehicle: saline with Tween-80
  T/C: 101 % of control

## CC1(c2ccccc2)C(C#N)C(=O)NC(=O)C1C#N (stereo not drawn)
[4]
  T/C: 94 % of control
[1]
  T/C: 102 % of control
[5]
  T/C: 93 % of control
[2]
  T/C: 91 % of control
[3]
  T/C: 91 % of control

## NCCCc1ccccc1
dose: 100.0 mg/kg/injection, schedule: Q01DX009 (ip), vehicle: saline
  T/C: 103 % of control
dose: 200.0 mg/kg/injection, schedule: Q01DX009 (ip), vehicle: saline
  T/C: 90 % of control

## COc1ccc(/C=N\NC(=O)c2ccccc2)cc1
[4]
  T/C: 95 % of control
[5]
  T/C: 95 % of control
[6]
  T/C: 86 % of control
